Measured values published in patent US20010016643A1, “Peptide derivatives” (priority 1995, published 2001).
Blank lines part the entries; values can stand above or below the compound they belong to. Residues, ends and D or L forms follow the SMILES beside them.

What was measured:
[1] = Blood glucose in rabbits pretreated with Insulin Actrapid after SC injection of glucagon or derivative; type: in vivo
Method: The resulting solution was sterilized by filtration and transferred to a vial.
Blood was sampled at times: −60, 0, 15, 30, 60, 120, 180 and 240 min, and the glucose concentration determined by the hexokinase method.

[2] = Lipophilicity relative to human insulin (k′rel) by RP-HPLC; type: physicochemical; conditions: LiChrosorb RP18 HPLC, isocratic elution, sodium phosphate buffer pH 7.3/acetonitrile
Method: The lipophilicity of peptides and peptide derivatives relative to human insulin, k′rel, was measured on a LiChrosorb RP18 (5 μm, 4×250 mm) HPLC column by isocratic elution at […] using mixtures of A) 0.1 M sodium phosphate buffer, pH 7.3, containing 10% acetonitrile, and B) 50% acetonitrile in water as eluents. The elution was monitored by following the UV absorption of the eluate at 214 nm. Void time, t0, was found by injecting 0.1 mM sodium nitrate. Retention time for human insulin, tinsulin was adjusted to at least 2t0 by varying the ratio between the A and B solutions. k′rel=(tderivative−t0 /(tinsulin−t0).

Compound: Lys^30 (N^ε-decanoyl) glucagon [Example 6]
blood glucose concentration ([1]; 15 min after SC injection): 79 mg glucose/100 ml | blood glucose concentration ([1]; 30 min after SC injection): 93 mg glucose/100 ml | blood glucose concentration ([1]; 60 min after SC injection): 114 mg glucose/100 ml | blood glucose concentration ([1]; 120 min after SC injection): 112 mg glucose/100 ml | blood glucose concentration ([1]; 180 min after SC injection): 116 mg glucose/100 ml | blood glucose concentration ([1]; 240 min after SC injection): 110 mg glucose/100 ml | blood glucose raising effect ([1]; SC, compared with glucagon): retained in Lys^30(Nε-decanoyl) glucagon but with a prolonged action | blood glucose concentration ([1]; time 0 min (SC injection of test substance)): 51 mg glucose/100 ml | blood glucose concentration ([1]; time −60 min (at Insulin Actrapid 2 IU/animal, before test substance)): 94 mg glucose/100 ml

lipophilicity relative to human insulin, k′rel [2]: 2.3
Compound: CCCC[C@H](NC=O)C(=O)N[C@@H](CC(C)C)C(=O)N[C@@H](Cc1ccccc1)C(=O)N[C@@H](CCCC)C(=O)N[C@@H](Cc1ccc(O)cc1)C(=O)N[C@@H](CCCCN)C(=O)O [For-Nle-Leu-Phe-Nle-Tyr-Lys-OH] (HELM PEPTIDE1{[O=C[*:2]].[Nle].L.F.[Nle].Y.K}$$$$V2.0)
